# PubChem BioAssay AID1996
# Conditions: buffer; pH 7.4; 200.0 µM
row,SMILES,solubility kinetic
1,CCOC(=O)c1ccccc1NC(=S)N1CCC(C(N)=O)CC1,41.6 µg/mL
2,Cc1ccc(C(=O)O/N=C(\N)c2ccccn2)cc1C,2.6 µg/mL
3,Cc1ccc(Nc2nc(Cl)nc(NC(C)(C)C)n2)cc1,3.8 µg/mL
4,COCC(=O)Nc1ccc(S(=O)(=O)N2CCCC2)cc1,> 44.8 µg/mL
5,Cc1c(C(=O)Nc2cccc(S(=O)(=O)N3CCOCC3)c2)oc2ccc(Br)cc12,4.5 µg/mL
6,O=C(NCCCCNC(=O)c1ccccn1)c1ccccn1,> 44.8 µg/mL
7,Nc1cccc(Oc2ccc3c(c2)C(=O)NC3=O)c1,36.6 µg/mL
8,COc1ccc(CCNC(=O)c2c(C)nc3ccccn23)cc1OC,> 50.9 µg/mL
9,CC(=O)c1ccc(S(=O)(=O)N2CCNCC2)cc1.Cl,45.5 µg/mL
10,CC(=O)N/C(=C/c1ccc2c(c1)OCO2)C(=O)N1CCOCC1,45 µg/mL
11,Cc1cc(C)c(C)c(OCCCCN2CCCCC2)c1,29.4 µg/mL
12,O=c1[nH]c(=S)n(-c2ccccc2)c(O)c1C=NCCN1CCNCC1,> 53.9 µg/mL
13,CC(C)COc1cccc(C(=O)NC2(C)CCS(=O)(=O)C2)c1 (stereo unspecified),> 48.8 µg/mL
14,c1cc(CCCc2ccncc2)ccn1,> 29.7 µg/mL
15,COC(=O)c1cccc(NC(=O)CC2C(=O)NCCN2C(=O)Nc2cc(C)cc(C)c2)c1 (stereo unspecified),13.1 µg/mL
16,CC(Sc1nnc(-c2ccccc2F)n1C1CC1)C(N)=O (stereo unspecified),> 46 µg/mL
17,CC(C)(C)C1CCCCC1NC(=O)c1ccncc1 (stereo unspecified),4.1 µg/mL
18,CCOc1ccc(C(=O)N2CCN(c3ccccn3)CC2)cc1OCC,> 53.3 µg/mL
19,COc1ccc(S(=O)(=O)Nc2ccncc2)c(C)c1C,4.6 µg/mL
20,O=C(CCC(=O)Nc1ccccc1)N/N=C/c1ccncc1,> 44.4 µg/mL
21,C=CCNC(=S)N1CCOCC1,> 27.9 µg/mL

row,SMILES,solubility kinetic
1,N#Cc1ccc(OC(=O)Cc2ccsc2)cc1,35.5 µg/mL
2,Cc1cc(C=O)c(C)n1C(C)C,23 µg/mL
3,CCOc1cc(C(=S)N2CCCC2)ccc1OCc1ccccc1,7.6 µg/mL
4,O=C(NN1CCOCC1)c1ccc(Cl)cc1Cl,> 41.3 µg/mL
5,Cn1cccc1C(=O)NCc1ccc(S(N)(=O)=O)cc1,> 44 µg/mL
6,CCCn1c2ccccc2c2cnn(CC(=O)NCCN(C)C)c(=O)c21,> 53.3 µg/mL
7,CCN(C(=O)c1cccs1)C1CCS(=O)(=O)C1 (stereo unspecified),> 41 µg/mL
8,COC(=O)CNC(=O)COC(=O)/C=C/c1ccc(F)cc1,> 44.3 µg/mL
9,O=C(CCN1CCN(c2ccccc2)CC1)Nc1ccccc1,40.9 µg/mL
10,O=C(c1ccc([N+](=O)[O-])cc1)N1CCC(Cc2ccccc2)CC1,27.5 µg/mL
11,COC(=O)c1ccccc1N1CCS(=O)(=O)CC1,> 40.4 µg/mL
12,COc1cc(CC(=O)OCC(=O)NCc2cccs2)cc(OC)c1OC,> 56.9 µg/mL
13,COc1cc([N+](=O)[O-])ccc1NC(=O)NCCCN1CCCC1=O,> 50.5 µg/mL
14,O=C(NCCC1=CCCCC1)C1CCN(S(=O)(=O)N2CCCC2)CC1,50.7 µg/mL
15,CC(C)C[C@H](NC(=O)NCCC1=CCCCC1)C(=O)O,40.9 µg/mL
16,CCCCCc1c(O)nc(SCCN(C)C)[nH]c1=O.Cl,> 48.3 µg/mL
17,O=C(CCc1ccccc1)NC1CCCc2ccccc21 (stereo unspecified),19.2 µg/mL
18,Cc1cccc(NC(=O)COC(=O)c2ccc3nc(C)c(C)nc3c2)c1,3.6 µg/mL
19,CC(=O)Nc1ccc(Nc2cc(C)c3ccccc3n2)cc1,41.6 µg/mL
20,CCCn1c(=O)c(C(=O)Nc2ccccc2C)c(O)c2ccccc21,< 0.4 µg/mL
21,CC1(C)Cc2nc3scc(NC(=O)c4ccccc4)c3cc2CO1,5.9 µg/mL

row,SMILES,solubility kinetic
1,Cc1cc(Cl)ccc1NC(=S)NCc1ccc(F)cc1,2.8 µg/mL
2,CCc1ccc(C(C)NC(=O)c2cccs2)cc1 (stereo unspecified),9 µg/mL
3,CN(C(=O)c1ccc(Br)o1)C1CCCCC1,32.2 µg/mL
4,Cc1cc(NC(=O)Nc2cccc([N+](=O)[O-])c2)no1,2.2 µg/mL
5,CCOc1ccc(C(C)NC(=O)c2cccs2)cc1OCC (stereo unspecified),11.1 µg/mL
6,c1ccc(CCNCCOc2ccccc2)cc1,22.8 µg/mL
7,COc1ccc(OC)c(NC(=O)C2CC2c2ccccc2)c1 (stereo unspecified),18 µg/mL
8,O=C(NC1CCSc2ccccc21)c1ccc([N+](=O)[O-])cc1 (stereo unspecified),3.5 µg/mL
9,CCCNC(=O)Nc1cc(S(=O)(=O)CC)ccc1O,37.9 µg/mL
10,Cc1ccc(C(C)C)c(OCCn2ccnc2C)c1.O=C(O)C(=O)O,46.7 µg/mL
11,CCSC(=O)NC1CCCCC1,14.4 µg/mL
12,CC(=O)N1CCC[C@H]1C(=O)O,> 23.6 µg/mL
13,CC(=O)NC(NC(=S)Nc1ccc(S(N)(=O)=O)cc1)C(Cl)(Cl)Cl (stereo unspecified),62.6 µg/mL
14,CCOC(=O)CC1C(=O)NCCN1C(=O)c1ccc(C)cc1 (stereo unspecified),> 45.7 µg/mL
15,O=C(OCC(=O)N1CCCC1)c1cccc(Br)c1,> 46.8 µg/mL
16,O=c1oc(-c2ccccc2F)nc2scc(-c3ccccc3)c12,< 0.7 µg/mL
17,CN1CCN(CC(=O)Nc2nc3ccccc3s2)CC1.O=CO,50.4 µg/mL
18,O=c1[nH]c2cc(S(=O)(=O)CCO)ccc2o1,32.4 µg/mL
19,Cc1ccc(NC(=O)c2sc(N)nc2C)cc1,> 37.1 µg/mL
